Earlier results as cited in patent US8039024B2, “Device and composition for the delivery of a preservative-free balsamic cream” (APR Applied Pharma Research, S.A., priority 2008, dated 2011).

Conditions: sprayed directly onto the nasal mucosa of dogs and humans

| Structure (SMILES) | decongestant action |
| --- | --- |
| CC12CCC(CC1=O)C2(C)C (centres unmarked) [camphor, Camphor] | no decongestant action |
| CC1CCC(C(C)C)C(O)C1 (centres unmarked) [menthol, Menthol] | no decongestant action |
